Converted amounts (≈) assume the structure as drawn.
Legend:
[1] = biological target: T1, human RXFP1 (Homo sapiens, UniProt Q9HBX9); test: RXFP1 Hu cAMP (Test A), HTRF cAMP production; assay type: cell-based; conditions: for Test A Sinf: fitted efficacy at infinite concentration, normalized to response of 1 nM relaxin, arithmetic mean
T1 construct: expressed in transfected cells; host or cells: Jump-In T-REx CHO-K1 cells (ThermoFisher)
T1 sequence (Q9HBX9 1-757): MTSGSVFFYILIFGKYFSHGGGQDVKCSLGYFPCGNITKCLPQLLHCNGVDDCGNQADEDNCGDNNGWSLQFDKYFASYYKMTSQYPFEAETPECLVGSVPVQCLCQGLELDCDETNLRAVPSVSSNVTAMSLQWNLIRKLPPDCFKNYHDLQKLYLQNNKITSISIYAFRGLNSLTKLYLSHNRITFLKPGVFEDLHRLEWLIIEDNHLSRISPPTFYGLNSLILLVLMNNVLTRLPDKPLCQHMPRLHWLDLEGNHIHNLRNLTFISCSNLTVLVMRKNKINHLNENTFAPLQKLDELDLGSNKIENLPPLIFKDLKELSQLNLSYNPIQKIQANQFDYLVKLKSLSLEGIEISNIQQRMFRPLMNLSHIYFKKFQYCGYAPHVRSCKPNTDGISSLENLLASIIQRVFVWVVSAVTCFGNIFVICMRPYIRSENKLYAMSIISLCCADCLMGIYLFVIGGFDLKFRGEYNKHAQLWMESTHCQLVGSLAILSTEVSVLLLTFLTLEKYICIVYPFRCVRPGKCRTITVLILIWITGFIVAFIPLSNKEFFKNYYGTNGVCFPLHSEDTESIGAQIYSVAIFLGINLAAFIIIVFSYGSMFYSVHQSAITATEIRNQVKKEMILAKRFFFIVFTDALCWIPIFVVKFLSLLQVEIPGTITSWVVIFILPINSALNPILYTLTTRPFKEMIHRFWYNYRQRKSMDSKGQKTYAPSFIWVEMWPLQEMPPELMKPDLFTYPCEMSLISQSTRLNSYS
From the text: To screen for modulators of hRXFP1, an assay identifying compounds that stimulate cAMP production via the Gs-coupled hRXFP1 receptor was used. cAMP HiRange HTRF kit (available from CisBio Bioassays, France; catalogue number 62AM6PEJ) was employed in large according to manufacturer's recommendations for detection of cAMP. The HTRF method is a competitive immunoassay between native cAMP produced by cells and cAMP labeled with the dye d2. The tracer binding is visualized with a cryptate labeled antibody for cAMP and the signal is thus inversely proportional to the amount of produced cAMP.
Cells: Jump-In™ T-REx™ CHO-K1 Cells (ThermoFisher) stably transfected with human RXFP1 was employed. Cells were induced to express human RXFP1 by treatment with 10 ng/ml doxycycline for 24 h. Cells were then cryopreserved for long term storage.
HTRF detection reagents: cAMP-d2 and anti-cAMP cryptate reconstituted according to CisBio instructions were diluted 1:40 in lysis buffer provided with the HTRF-kit.
Using a cAMP standard curve, HTRF data was converted to amount cAMP produced in the samples which was subsequentially used for calculation of concentration responses.
Concentration response data were fitted with a four parameter logistic fit, the Hill equation.
Where the assay was run multiple times for the same compound, the geometric mean is reported.
Sinf is the fitted activity level, efficacy, at infinite concentration of test compound. To facilitate comparison of efficacy data, efficacy was normalized to % effect of the response stimulated by a saturating concentration of relaxin (1 nM). Where the assay was run multiple times for the same compound, the arithmetic mean is reported.

[2] = Human Plasma Protein Binding (Test B); assay type: in vitro ADME; conditions: fraction unbound (fu), arithmetic mean
Experimental: Human Plasma Protein Binding (Test B)
The assay was conducted according to the Human Plasma Protein Binding Assay described in pages 167-170 of Wemevik, J. et al., “A Fully Integrated Assay Panel for Early Drug Metabolism and Pharmacokinetics Profiling”, Assay and Drug Development Technologies, 2020, 18(4), 157-179. Data are reported in Table 1 as fraction unbound (fu) (% free). Where the assay was run multiple times for the same compound, the arithmetic mean is reported.

[3] = Human Liver Microsomal Stability (Test C); assay type: in vitro ADME; conditions: human liver microsomes; arithmetic mean
Experimental: Human Liver Microsomal Stability (Test C)
The assay was conducted according to the Human Liver Microsome Stability Assay described in pages 170-174 of Wemevik, J. et al., “A Fully Integrated Assay Panel for Early Drug Metabolism and Pharmacokinetics Profiling”, Assay and Drug Development Technologies, 2020, 18(4), 157-179. Data are reported in Table 1 as CLint (μl/min/mg protein).
Where the assay was run multiple times for the same compound, the arithmetic mean is reported.

[4] = Human Hepatocyte Stability (Test D); assay type: in vitro ADME; conditions: cryopreserved pooled human hepatocytes (LiverPool 10-Donor), geometric mean
Experimental: Human Hepatocyte Stability (Test D)
Prepare 10 mM stock solutions of compound and control compounds in appropriate solvent (DMSO). Place incubation medium (L-15 Medium) in a 37° C. water bath, and allow warming for at least 15 minutes prior to use. • 2. […] Remove a vial of cryopreserved (less than −150° C.) human hepatocytes (LiverPool™ 10-Donor Human hepatocytes obtained from Bioreclamation IVT (Product No. S01205)) from storage, ensuring that vials remain at cryogenic temperatures until thawing process ensues. As quickly as possible, thaw the cells by placing the vial in a 37° C. water bath and gently shaking the vials. Vials should remain in water bath until all ice crystals have dissolved and are no longer visible. After thawing is complete, spray vial with 70% ethanol, transfer the vial to a bio-safety cabinet. • 5. Open the vial and pour the contents into the 50 mL conical tube containing thawing medium. Place the 50 mL conical tube into a centrifuge and spin at 100 g for 10 minutes (room temperature). […] Using Cellometer® Vision, count cells and determine the viable cell density. […]
All calculations were carried out using Microsoft Excel. Peak areas were determined from extracted ion chromatograms. In vitro intrinsic clearance (in vitro Clint, in μL/min/10^6 cells) of parent compound was determined by regression analysis of the Ln percent parent disappearance vs. time curve.

[5] = Rat Hepatocyte Stability (Test E); assay type: in vitro ADME; conditions: rat hepatocytes; geometric mean
Experimental: Rat Hepatocyte Stability (Test E)
The assay was conducted according to the Rat Hepatocyte Stability Assay described in pages 170-174 of Wernevik, J. et al., “A Fully Integrated Assay Panel for Early Drug Metabolism and Pharmacokinetics Profiling”, Assay and Drug Development Technologies, 2020, 18(4), 157-179. Data are reported in Table 1 as mean Clint (μl/min/10^6 cells). Where the assay was run multiple times for the same compound, the geometric mean is reported.

[6] = Solubility (Test F); assay type: physicochemical; conditions: arithmetic mean
Experimental: The assay was conducted according to the Solubility Assay described in pages 164-167 of Wemevik, J. et al., “A Fully Integrated Assay Panel for Early Drug Metabolism and Pharmacokinetics Profiling”, Assay and Drug Development Technologies, 2020, 18(4), 157-179. Where the assay was run multiple times for the same compound, the arithmetic mean is reported.

EC50 ([1]; cAMP production, Jump-In T-REx CHO-K1 cells stably transfected with human RXFP1, geometric mean) [nM] | Test A Sinf [1] [%] | Test B Human Plasma Protein Binding (% free) [2] [% free] | microsomal CLint [3] [µL/min/mg] | hepatocyte CLint at 1 µM [4] [µL/min/1e6 cells] | hepatocyte CLint [5] [µL/min/1e6 cells] | solubility [6] [µM] | SMILES
230 | 101 |  |  |  |  |  | COc1cc(F)c(O[C@H]2CC[C@@](C)(C(=O)O)CC2)cc1C(=O)N[C@@H]1[C@H]2CC[C@H](C2)[C@@H]1C(=O)NCC1CCC1 [Example 2, (1S,4s)-4-(5-(((1S,2R,3S,4R)-3-((cyclobutylmethyl)carbamoyl)bicyclo[2.2.1]heptan-2-yl)carbamoyl)-2-fluoro-4-methoxyphenoxy)-1-methylcyclohexane-1-carboxylic acid]
 | 97 |  |  |  |  |  | COc1cc(C#N)c(O[C@H]2CC[C@@](C)(C(=O)O)CC2)cc1C(=O)N[C@@H]1[C@H]2CC[C@H](C2)[C@@H]1C(=O)NCC1CC1 [Example 3, (1S,4s)-4-(2-Cyano-5-(((1S,2R,3S,4R)-3-((cyclopropylmethyl)carbamoyl)bicyclo[2.2.1]heptan-2-yl)carbamoyl)-4-methoxyphenoxy)-1-methylcyclohexane-1-carboxylic acid]
 |  | 12 | < 3 | < 1.2 | 15 | 910 (≈ 491 µg/mL) | COc1cc(C#N)c(O[C@H]2CC[C@@](C)(C(=O)O)CC2)cc1C(=O)N[C@@H]1[C@H]2CC[C@H](C2)[C@@H]1C(=O)NCC(C)(C)C [Example 5, (1S,4s)-4-(2-cyano-4-methoxy-5-(((1S,2R,3S,4R)-3-(neopentylcarbamoyl)bicyclo[2.2.1]heptan-2-yl)carbamoyl)phenoxy)-1-methylcyclohexane-1-carboxylic acid]

From patent US20260069558A1, “RXFP1 MODULATORS FOR TREATING RESISTANT HYPERTENSION OR HEART FAILURE WITH PULMONARY HYPERTENSION” (ASTRAZENECA AB, priority 2022, published 2026)
